Measured values from article PMC5137160, “Optical imaging of MMP-12 active form in inflammation and aneurysm” (Scientific Reports, 2016).

What was measured:
TACE = TACE (Homo sapiens, UniProt P78536); experiment: Metalloprotease inhibition assay (Ki); format: biochemical
MMP-12 active form [1] = target: T1, MMP-12 active form (Mus musculus, UniProt P34960); experiment: Sponge model of sterile inflammation, fluorescence imaging of explanted sponges; format: in vivo, C57BL/6 mice; parameters: from tissue; host or cells: subcutaneously implanted polyvinyl alcohol sponges in C57BL/6 mice; details: 60 minutes after intravenous administration, 1 nmol
T1 sequence (P34960 110-473): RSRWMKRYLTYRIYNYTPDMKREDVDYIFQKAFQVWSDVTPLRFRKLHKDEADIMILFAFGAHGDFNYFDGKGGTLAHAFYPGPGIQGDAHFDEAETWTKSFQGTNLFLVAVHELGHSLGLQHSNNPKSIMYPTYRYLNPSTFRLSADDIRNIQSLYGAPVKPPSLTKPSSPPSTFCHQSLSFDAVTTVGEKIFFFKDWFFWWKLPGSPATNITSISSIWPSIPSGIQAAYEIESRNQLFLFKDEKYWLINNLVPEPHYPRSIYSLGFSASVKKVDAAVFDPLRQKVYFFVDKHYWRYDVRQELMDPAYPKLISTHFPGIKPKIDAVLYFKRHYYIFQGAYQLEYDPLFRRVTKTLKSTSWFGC
Description: Sponge model of sterile inflammation: Pieces of polyvinyl alcohol sponge (Ivalon Ear Wick, 0.9 e × 15 mm, New London, CT) were implanted in dorsal subcutaneous pockets of C57BL/6 mice (originally from Jackson Laboratory, Farmington, CT, n = 24) under isoflurane anesthesia, as described. Animals were re-anesthetized at day 1 or 4 after sponge implantation, and the sponges were removed for imaging or embedded in OCT, snap-frozen, and stored at −80 °C for further analysis.
Fluorescent probes (one nmol in 100 μL saline) were administered through a jugular vein catheter under inhaled isoflurane anesthesia. Blood samples were collected at various time points after probe administration to monitor blood clearance. […] Near-infrared fluorescence reflectance imaging was conducted using an IVIS Spectrum system (Caliper Life Science, Hopkinton, MA) with appropriate excitation (Ex) and emission (Em) filter sets (Ex/Em = 675/720 nm for probe 1 and Ex/Em = 745/800 nm for probes 3 and 4). Fluorescence from 10 μL of blood was converted to % injected dose per gram (% ID/g) using a standard curve derived from serial dilutions of each probe in 10 μL of mouse blood. Tissue fluorescence was quantified as mean efficiency per pixel and was presented as an arbitrary unit (AU) relative to the signal from each probe in 10 μL of mouse blood.

[2] = Stability in mouse blood by HPLC; format: in vitro ADME; details: 4 hours at 37 °C
Description: (§1) Probes 1, 2, 3 and control probe 4 were synthesized from phosphinic building blocks whose synthesis was previously reported. Briefly, the elongation of the peptide’s sequence as well as the incorporation of the phosphinic building blocks were performed on solid support using a standard Fmoc strategy. After cleavage from the support, pseudo peptide intermediates were purified and subsequently engaged in a coupling reaction with the appropriate dye-NHS ester. The identity and purity of each optical probe were confirmed by analytical HPLC, mass spectrometry analysis and NMR (for detailed protocols and analytical data see supplemental information). The stability of each probe was confirmed in phosphate buffered saline (PBS). Moreover, the stability of probe 3 and its control, probe 4 were evaluated by HPLC in mouse blood over a period of 4 hours at 37 °C.

[3] = Blood clearance and biodistribution after intravenous administration in wild type mice; format: in vivo; details: 1 nmol intravenous, 30 and 60 minutes, compared to probe 1
Description: (§2) Fluorescent probes (one nmol in 100 μL saline) were administered through a jugular vein catheter under inhaled isoflurane anesthesia. Blood samples were collected at various time points after probe administration to monitor blood clearance. Animals were sacrificed at the indicated time points and various organs were harvested. Near-infrared fluorescence reflectance imaging was conducted using an IVIS Spectrum system (Caliper Life Science, Hopkinton, MA) with appropriate excitation (Ex) and emission (Em) filter sets (Ex/Em = 675/720 nm for probe 1 and Ex/Em = 745/800 nm for probes 3 and 4). Fluorescence from 10 μL of blood was converted to % injected dose per gram (% ID/g) using a standard curve derived from serial dilutions of each probe in 10 μL of mouse blood. Tissue fluorescence was quantified as mean efficiency per pixel and was presented as an arbitrary unit (AU) relative to the signal from each probe in 10 μL of mouse blood.

MMP-12 active form [4] = target: T1, MMP-12 active form; experiment: MMP-12 imaging of carotid aneurysm; format: in vivo; parameters: from tissue; host or cells: CaCl2-induced aneurysmal left carotid artery of apoE-deficient mice (in vivo imaging and cryostat sections); details: high fat-fed apoE-/- mice, tissues harvested at 60 minutes after intravenous administration
Description: Carotid aneurysm model: Arterial aneurysm was induced over a 4-week period by exposing the left common carotid artery of apolipoprotein E–deficient (apoE^−/−, n = 7) mice (Jackson Laboratory) to calcium chloride, as described. The opposite carotid artery was exposed to normal saline and served as control for imaging studies. Tissues from a previous study (n = 3)[18] supplemented histologic evaluations.
as §2

Stability in PBS = format: physicochemical
Description: as §1

human MMPs = experiment: Affinity and selectivity profile toward panel of human MMPs; format: biochemical
Description: Human MMP-8, -9, -12 and -13 were produced in the laboratory. Other MMPs were purchased from R&D Systems (Minneapolis, MN). MMP inhibition assays were carried out as previously described. Pro-MMPs were pre-activated by p-aminophenylmercuric acetate following the method described by R&D Systems. Titration experiments were carried out to determine active enzyme concentration for each MMP prior to the assay. For each probe, the percentage of inhibition was determined from five different concentrations in triplicates, chosen to reach a range of 20–80% inhibition. Ki values were determined using the method proposed by Horovitz and Leviski[45].

Sequence of TACE (P78536 215-824): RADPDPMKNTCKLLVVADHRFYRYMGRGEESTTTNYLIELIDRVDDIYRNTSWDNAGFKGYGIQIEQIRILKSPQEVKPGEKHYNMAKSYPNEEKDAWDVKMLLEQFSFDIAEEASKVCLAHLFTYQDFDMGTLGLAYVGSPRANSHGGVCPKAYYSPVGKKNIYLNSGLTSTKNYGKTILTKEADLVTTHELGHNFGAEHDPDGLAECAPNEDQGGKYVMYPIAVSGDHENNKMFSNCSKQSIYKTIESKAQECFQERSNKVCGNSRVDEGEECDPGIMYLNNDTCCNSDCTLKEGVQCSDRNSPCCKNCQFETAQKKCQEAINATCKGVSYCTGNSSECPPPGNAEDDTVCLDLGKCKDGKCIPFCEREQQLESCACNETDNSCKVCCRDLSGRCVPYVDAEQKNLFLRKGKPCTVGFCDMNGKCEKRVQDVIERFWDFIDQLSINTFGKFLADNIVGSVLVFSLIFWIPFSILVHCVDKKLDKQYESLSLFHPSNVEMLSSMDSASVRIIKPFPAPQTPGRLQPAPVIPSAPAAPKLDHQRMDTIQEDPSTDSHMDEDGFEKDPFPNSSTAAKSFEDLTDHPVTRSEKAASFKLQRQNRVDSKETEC

Compound | Ki (TACE) | fluorescence signal in explanted sponges (MMP-12 active form [1]) | stability in mouse blood [2] | residual blood level [3] | fluorescence signal in aneurysmal left carotid artery (MMP-12 active form [4]) | stability in PBS (Stability in PBS) | affinity for human MMPs (human MMPs)
CC1(C)C(/C=C/C2=C(Oc3ccc(CCC(=O)NCCCOCCOCCOCCCNC(=O)[C@H](CCC(=O)[O-])NC(=O)[C@H](CCC(=O)O)NC(=O)[C@H](Cc4cc(-c5ccc(-c6cccc(Cl)c6)cc5)no4)CP(=O)(O)c4ccc(Br)cc4)cc3)C(=C/C=C3/N(CCC[N+](C)(C)C)c4ccc(S(=O)(=O)[O-])cc4C3(C)C)/CCC2)=[N+](CCC[N+](C)(C)C)c2ccc(S(=O)(=O)[O-])cc21 [probe 3] | 4.61 ± 0.653 µM | intense signal | fully stable | significantly lower residual blood level | significantly higher than the signal in the control, contralateral artery | fully stable | 
CC1(C)C(=CC=C2CCCC(C=CC3=[N+](CCC[N+](C)(C)C)c4ccc(S(=O)(=O)[O-])cc4C3(C)C)=C2Oc2ccc(CCC(=O)NCCCOCCOCCOCCCNC(=O)C(CCC(=O)[O-])NC(=O)C(CCC(=O)O)NC(=O)C(Cc3cc(-c4cccc(Oc5ccccc5)c4)no3)CP(=O)(O)c3ccc(Br)cc3)cc2)N(CCC[N+](C)(C)C)c2ccc(S(=O)(=O)[O-])cc21 (centres unmarked) [probe 4] | > 25 µM | significantly lower | stable |  | significantly lower signal |  | no affinity
